Laboratory results reported in ChEMBL document CHEMBL1149557, “Induction of GRP78 by valproic acid is dependent upon histone deacetylase inhibition” (2007).
Blank lines part the entries; values can stand above or below the molecule they belong to. Activity calls are given as the source filed them. The calls are words filed in the database; no cut-off is given here.

How the values were obtained:
[1] = biological target: Glycogen synthase kinase-3 beta (Homo sapiens) (UniProt P49841); assay: Inhibition of GSK3-beta at 2 mM relative to control
[2] = biological target: T1, Histone deacetylase (Homo sapiens) (UniProt Q13547+O15379+Q9UBN7+Q92769+Q9UQL6+Q8WUI4+Q9BY41+Q96DB2+P56524+Q9UKV0+Q969S8); assay: Inhibition of HDAC in HEK293 cells assessed as increase in histone H4 acetylation at 2 mM after 48 hrs; type: cell-based
HEK293 [3] = assay: Increase in protein disulfide isomerase level in HEK293 cells at 2 mM by immunoblot; type: functional, cell-based; details: Homo sapiens
HEK293 [4] = assay: Increase in GRP78 protein level in HEK293 cells at 2 mM by immunoblot; type: functional, cell-based; details: Homo sapiens
HEK293 [5] = assay: (§1) Increase in GRP78 protein level in HEK293 cells at 1 mM by immunoblot; type: functional, cell-based; details: Homo sapiens
[6] = biological target: T1, Histone deacetylase (Homo sapiens); assay: Inhibition of HDAC in HEK293 cells assessed as increase in histone H4 acetylation at 1 mM after 48 hrs relative to control; type: cell-based
HEK293 [7] = assay: as §1; type: functional, Homo sapiens
HEK293 [8] = assay: Increase in protein disulfide isomerase level in HEK293 cells at 1 mM by immunoblot; type: functional, cell-based; details: Homo sapiens
HEK293 [9] = assay: Increase in protein disulfide isomerase level in HEK293 cells at 600 nM by immunoblot; type: functional, cell-based; details: Homo sapiens
HEK293 [10] = assay: Increase in GRP78 protein level in HEK293 cells at 600 nM by immunoblot; type: functional, cell-based; details: Homo sapiens
HEK293 [11] = assay: Increase in protein disulfide isomerase level in HEK293 cells at 10 ug/ml by immunoblot; type: functional, cell-based; details: Homo sapiens
HEK293 [12] = assay: Induction of GADD153/CHOP protein level in HEK293 cells by immunoblot; type: functional, cell-based; details: Homo sapiens
HEK293 [13] = assay: Increase in GRP78 protein level in HEK293 cells at 10 ug/mL by immunoblot; type: functional, cell-based; details: Homo sapiens

Chain of Glycogen synthase kinase-3 beta (Homo sapiens) (P49841 whole entry, looked up): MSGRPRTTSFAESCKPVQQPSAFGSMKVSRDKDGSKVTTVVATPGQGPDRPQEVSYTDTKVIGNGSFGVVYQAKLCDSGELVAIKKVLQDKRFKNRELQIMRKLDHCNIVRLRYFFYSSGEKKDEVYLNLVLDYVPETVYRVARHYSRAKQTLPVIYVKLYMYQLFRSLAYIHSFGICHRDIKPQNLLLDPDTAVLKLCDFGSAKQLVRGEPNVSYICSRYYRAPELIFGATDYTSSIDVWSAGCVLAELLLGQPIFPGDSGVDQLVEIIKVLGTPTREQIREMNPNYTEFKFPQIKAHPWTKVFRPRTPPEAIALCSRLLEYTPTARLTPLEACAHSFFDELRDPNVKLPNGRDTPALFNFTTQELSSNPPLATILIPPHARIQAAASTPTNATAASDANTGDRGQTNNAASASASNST

inhibition [1]: 126%
Activity [2]: inactive
Compound: O=C(O)CCCc1ccccc1

inhibition [1]: 91.3%
Activity [2]: Active
Compound: CC/C=C(\CCC)C(=O)O
Activity (HEK293 [3]): Active
Activity (HEK293 [4]): Active

inhibition [1]: 2.9%
Activity [2]: inactive
Compound: CCC(CC)C(=O)O
Activity (HEK293 [4]): inactive

inhibition [1]: 65.2%
Fold change [6]: 3.5
Compound: CCCC(CCC)C(=O)O [VALPROIC ACID]
Activity (HEK293 [5]): Active
Fold change (HEK293 [7]): 2
Activity (HEK293 [8]): Active

Compound: CC(/C=C/C(=O)NO)=C\[C@@H](C)C(=O)c1ccc(N(C)C)cc1
Activity (HEK293 [9]): Active
Activity (HEK293 [10]): Active

Compound: CC(=O)N[C@H]1[C@@H](O[C@@H]2O[C@H](CC(O)[C@H]3O[C@@H](n4ccc(=O)[nH]c4=O)[C@H](O)[C@@H]3O)[C@H](O)[C@H](O)[C@H]2NC(=O)/C=C/CC(C)C)O[C@H](CO)[C@@H](N)[C@@H]1O (some centres undefined)
Activity (HEK293 [11]): Active
Activity (HEK293 [12]): Active
Activity (HEK293 [13]): Active
